Results taken from US4537717A.
In brackets after ≈: the same amount, converted by molar mass.

Experiments:
[1] = system: Streptococcus pneumoniae Group D X66; format: cell-based; details: agar dilution; 2, 5, 17, 22 median of three tests; paired values two experiments
[2] = system: Streptococcus Group 9960; format: cell-based, Streptococcus pneumoniae; details: agar dilution; 2, 5, 17, 22 median of three tests; paired values two experiments
[3] = system: Staphylococcus aureus X1.1; format: cell-based; details: agar dilution; 2, 5, 17, 22 median of three tests; paired values two experiments
[4] = toxicity test (LD50); details: mouse, in vivo, iv, mice; administered intravenously
[5] = system: Streptococcus pyogenes C203; format: cell-based; details: agar dilution; 2, 5, 17, 22 median of three tests; paired values two experiments
[6] = system: Staphylococcus epidermidis EPI1; format: cell-based; details: agar dilution; 2, 5, 17, 22 median of three tests; paired values two experiments
[7] = system: Staphylococcus aureus V41; format: cell-based; details: penicillin-resistant strain; agar dilution; 2, 5, 17, 22 median of three tests; paired values two experiments
[8] = system: Bacillus subtilis ATCC 6633; assay: agar-plate disc-diffusion test; details: 7 mm disc, 24-48 hours at 25-37° C.; for Size of Zone of Inhibition (mm) B. subtilis ATCC 6633, grown on minimal nutrient agar: 1 mg/ml; for Size of Zone of Inhibition (mm) Bacillus subtilis ATCC 6633: suspended in water at 1 mg/ml
Description: ^a Compounds were suspended in water at a concentration of 1 mg/ml; a
7 mm disc was dipped into the suspension and then placed on the agar
surface; incubation: 24-48 hours at 25-37° C.
^b Grown on minimal nutrient agar

[9] = system: Staphylococcus aureus X400; format: cell-based; details: methicillin-resistant strain; agar dilution; 2, 5, 17, 22 median of three tests; paired values two experiments
[10] = system: Staphylococcus epidermidis EPI2; format: cell-based; details: agar dilution; 2, 5, 17, 22 median of three tests; paired values two experiments
[11] = system: Staphylococcus aureus; assay: in vivo activity against experimental bacterial infection (ED50); details: mice; two doses subcutaneously; dose protecting fifty percent of test animals
[12] = system: Streptococcus pyogenes; assay: as above; details: mice, dose protecting fifty percent of test animals; for ED50 Streptococcus pyogenes Oral: two doses orally; for ED50 Streptococcus pyogenes Subcutaneous: two doses subcutaneously
[13] = system: Micrococcus luteus ATCC 9341; assay: agar-plate disc-diffusion test; format: cell-based; details: suspended in water at 1 mg/ml; 7 mm disc; 24-48 hours at 25-37° C.
[14] = system: Streptococcus pneumoniae Park I; format: cell-based; details: agar dilution; 2, 5, 17, 22 median of three tests; paired values two experiments
[15] = system: Staphylococcus aureus ATCC 6738P; assay: agar-plate disc-diffusion test; format: cell-based; details: suspended in water at 1 mg/ml; 7 mm disc; 24-48 hours at 25-37° C.

| Compound | MIC Streptococcus pneumoniae Group D X66 [1] [µg/mL] | MIC Streptococcus pneumoniae Group 9960 [2] [µg/mL] | MIC Staphylococcus aureus X1.1 [3] [µg/mL] | LD50 [4] [mg/kg] | MIC Streptococcus pyogenes C203 [5] [µg/mL] | MIC Staphylococcus epidermidis EPI1 [6] [µg/mL] | MIC Staphylococcus aureus V41 [7] [µg/mL] | Size of Zone of Inhibition (mm) B. subtilis ATCC 6633, grown on minimal nutrient agar [8] [mm] | Size of Zone of Inhibition (mm) Bacillus subtilis ATCC 6633 [8] [mm] | MIC Staphylococcus aureus X400 [9] [µg/mL] | MIC Staphylococcus epidermidis EPI2 [10] [µg/mL] | ED50 Staphylococcus aureus Subcutaneous [11] [mg/kg × 2] | ED50 Streptococcus pyogenes Oral [12] [mg/kg × 2] | ED50 Streptococcus pyogenes Subcutaneous [12] [mg/kg × 2] | Size of Zone of Inhibition (mm) Micrococcus luteus ATCC 9341 [13] [mm] | MIC Streptococcus pneumoniae Park I [14] [µg/mL] | Size of Zone of Inhibition (mm) Staphylococcus aureus ATCC 6738P [15] [mm] |
| --- | --- | --- | --- | --- | --- | --- | --- | --- | --- | --- | --- | --- | --- | --- | --- | --- | --- |
| CCCCCCCCCCC(=O)N[C@@H](Cc1c[nH]c2ccccc12)C(=O)N[C@@H](CC(N)=O)C(=O)N[C@@H](CC(=O)O)C(=O)N[C@@H]1C(=O)NCC(=O)N[C@@H](CCCN)C(=O)N[C@@H](CC(=O)O)C(=O)N[C@H](C)C(=O)N[C@@H](CC(=O)O)C(=O)NCC(=O)N[C@H](CO)C(=O)N[C@@H]([C@H](C)CC(=O)O)C(=O)N[C@@H](CC(=O)c2ccccc2N)C(=O)O[C@@H]1C [Compound 5] | 2 (≈ 1.22 µM) | 0.5 (≈ 0.306 µM) | 0.25 (≈ 0.153 µM) | > 600 | 0.125 (≈ 0.0765 µM) | 0.5 (≈ 0.306 µM) | 0.25 (≈ 0.153 µM) | 21 | 19 | 0.5 (≈ 0.306 µM) | 0.5 (≈ 0.306 µM) | 0.37 | 138 | 0.13 | 21 | 0.25 (≈ 0.153 µM) | 19 |
| CCCCCCCCCCCCCCC(=O)N[C@@H](Cc1c[nH]c2ccccc12)C(=O)N[C@@H](CC(N)=O)C(=O)N[C@@H](CC(=O)O)C(=O)N[C@@H]1C(=O)NCC(=O)N[C@@H](CCCN)C(=O)N[C@@H](CC(=O)O)C(=O)N[C@H](C)C(=O)N[C@@H](CC(=O)O)C(=O)NCC(=O)N[C@H](CO)C(=O)N[C@@H]([C@H](C)CC(=O)O)C(=O)N[C@@H](CC(=O)c2ccccc2N)C(=O)O[C@@H]1C [Compound 9] | 2 (≈ 1.18 µM) | 0.25 (≈ 0.148 µM) | 1 (≈ 0.591 µM) | 56.2 | 1 (≈ 0.591 µM) | 2 (≈ 1.18 µM) | 1 (≈ 0.591 µM) | 24 | 19 | 2 (≈ 1.18 µM) | 4 (≈ 2.37 µM) | 8.3 | > 200 | – | 19 | 0.06 (≈ 0.0355 µM) | 20 |
| CCCCC=CCCCCCCCC(=O)N[C@@H](Cc1c[nH]c2ccccc12)C(=O)N[C@@H](CC(N)=O)C(=O)N[C@@H](CC(=O)O)C(=O)N[C@@H]1C(=O)NCC(=O)N[C@@H](CCCN)C(=O)N[C@@H](CC(=O)O)C(=O)N[C@H](C)C(=O)N[C@@H](CC(=O)O)C(=O)NCC(=O)N[C@H](CO)C(=O)N[C@@H]([C@H](C)CC(=O)O)C(=O)N[C@@H](CC(=O)c2ccccc2N)C(=O)O[C@@H]1C [Compound 12] | 2 (≈ 1.19 µM) | 1 (≈ 0.597 µM) | 1 (≈ 0.597 µM) | 450 | 0.5 (≈ 0.299 µM) | 2 (≈ 1.19 µM) | 1 (≈ 0.597 µM) | 30 | 19 | 2 (≈ 1.19 µM) | 2 (≈ 1.19 µM) | 3.28 | 75 | 0.134 | 20 | 0.5 (≈ 0.299 µM) | 22 |
| CCCCCCCCCCCCCCCC(=O)N[C@@H](Cc1c[nH]c2ccccc12)C(=O)N[C@@H](CC(N)=O)C(=O)N[C@@H](CC(=O)O)C(=O)N[C@@H]1C(=O)NCC(=O)N[C@@H](CCCN)C(=O)N[C@@H](CC(=O)O)C(=O)N[C@H](C)C(=O)N[C@@H](CC(=O)O)C(=O)NCC(=O)N[C@H](CO)C(=O)N[C@@H]([C@H](C)CC(=O)O)C(=O)N[C@@H](CC(=O)c2ccccc2N)C(=O)O[C@@H]1C [Compound 10] | 2 (≈ 1.17 µM) | 0.25 (≈ 0.147 µM) | 1 (≈ 0.587 µM) | 50 | 1 (≈ 0.587 µM) | 2 (≈ 1.17 µM) | 1 (≈ 0.587 µM) | 23 | 17 | 2 (≈ 1.17 µM) | 2 (≈ 1.17 µM) | > 1.1 | > 200 | 0.18 | 17 | 0.06 (≈ 0.0352 µM) | 19 |
| CCCCCCCCCCC(=O)NCCC[C@@H]1NC(=O)CNC(=O)[C@@H](NC(=O)[C@H](CC(=O)O)NC(=O)[C@H](CC(N)=O)NC(=O)[C@H](Cc2c[nH]c3ccccc23)NC(=O)CCCCCCCCCC)[C@@H](C)OC(=O)[C@H](CC(=O)c2ccccc2N)NC(=O)[C@H]([C@H](C)CC(=O)O)NC(=O)[C@@H](CO)NC(=O)CNC(=O)[C@H](CC(=O)O)NC(=O)[C@@H](C)NC(=O)[C@H](CC(=O)O)NC1=O [Compound 17] | 8 (≈ 4.44 µM) | 8 (≈ 4.44 µM) | 1 (≈ 0.555 µM) | 94 | 0.25 (≈ 0.139 µM) | 8 (≈ 4.44 µM) | 4 (≈ 2.22 µM) | 20 | 13 | 4 (≈ 2.22 µM) | 8 (≈ 4.44 µM) | > 35 | > 200 | 2.85 | 14 | 0.125 (≈ 0.0693 µM) | 17 |
| CCCCCCC(=O)N[C@@H](Cc1c[nH]c2ccccc12)C(=O)N[C@@H](CC(N)=O)C(=O)N[C@@H](CC(=O)O)C(=O)N[C@@H]1C(=O)NCC(=O)N[C@@H](CCCN)C(=O)N[C@@H](CC(=O)O)C(=O)N[C@H](C)C(=O)N[C@@H](CC(=O)O)C(=O)NCC(=O)N[C@H](CO)C(=O)N[C@@H]([C@H](C)CC(=O)O)C(=O)N[C@@H](CC(=O)c2ccccc2N)C(=O)O[C@@H]1C [Compound 1] | 128 (≈ 81.1 µM) | 128 (≈ 81.1 µM) | 8 (≈ 5.07 µM) | > 600 | 2 (≈ 1.27 µM) | 16 (≈ 10.1 µM) | 8 (≈ 5.07 µM) | 16 | 15 | 8 (≈ 5.07 µM) | 8 (≈ 5.07 µM) | 2.65 | – | – | 21 | 8 (≈ 5.07 µM) | 17 |
| CCCCCCCCC(=O)N[C@@H](Cc1c[nH]c2ccccc12)C(=O)N[C@@H](CC(N)=O)C(=O)N[C@@H](CC(=O)O)C(=O)N[C@@H]1C(=O)NCC(=O)N[C@@H](CCCN)C(=O)N[C@@H](CC(=O)O)C(=O)N[C@H](C)C(=O)N[C@@H](CC(=O)O)C(=O)NCC(=O)N[C@H](CO)C(=O)N[C@@H]([C@H](C)CC(=O)O)C(=O)N[C@@H](CC(=O)c2ccccc2N)C(=O)O[C@@H]1C [Compound 3] | 32 (≈ 19.9 µM) | 8 (≈ 4.98 µM) | 2 (≈ 1.24 µM) | > 600 | 0.25 (≈ 0.156 µM) | 4 (≈ 2.49 µM) | 2 (≈ 1.24 µM) | 27 | 16 | 4 (≈ 2.49 µM) | 2 (≈ 1.24 µM) | 0.5 | – | – | 18 | 2 (≈ 1.24 µM) | 20 |
